Assays:
HCAEC monolayers [1] = test: Water flux through HCAEC monolayers; format: cell-based, human; conditions: FIG. 8
HCAEC monolayers [2] = test: Heparan sulfate immunostaining of HCAEC monolayers; format: cell-based, human; conditions: 1004/mL for 24 hrs; confocal microscope; FIG. 9
Procedure: HCAEC monolayers were incubated with RS#1 at 1004/mL for 24 hrs and immunostaining for heparan sulfate was performed. The monolayers were then imaged using a laser scanning confocal microscope. One control and one RS#1-treated monolayers were stained and four representative fields from each case were imaged. In control monolayers, heparan sulfate immunostaining seemed to be concentrated on the cell-cell junction area (FIG. 9A).

[3] = tested on: human coronary artery endothelial cells (HCAEC); test: LDL permeability of HCAEC monolayers; format: cell-based; conditions: 12.5 to 12004/mL, 24 hrs to 5 day, FIGS. 6 and 7
Procedure: To test whether any of the RS isoforms could inhibit apoptosisn in human coronary artery endothelial cells (HCAEC), the HCAEC (human coronary artery endothelial cell) monolayers were incubated with each of two isoforms, RS#1 or RS#2, at concentrations ranging from 12.5 to 12004/mL for a period of time ranging from 24 hrs to 5 day, before the permeability of LDL (low density lipoprotein) was measured. In addition, some monolayers were induced to undergo apoptosis with TNF-α/CHX in the presence or absence of RS#1 or RS#2 and the permeability of LDL was measured. As shown in the figure, Dil means 11′-dioctadecyl-3,3-3′,3′-tetramethylindo-carbocyanide perchlorate. […] When the monolayers were induced to undergo apoptosis the permeability increased by ˜2-3-fold.

endothelial cells (EC) = test: Disaccharide analysis of heparan sulfate synthesized by endothelial cells; format: cell-based; conditions: EC exposed to RS vs control cell fraction; FIG. 4
Procedure: Purified heparin sulfate (HS) from the endothelial cells (EC) exposed or not exposed to RS #2 were incubated with a mixture of heparin lyases (heparinase I and II, 2.5 mlU each, available from Sigma) and the disaccharides produced by the enzymatic action were separated on a Phenosphere SAX column (Phenomenex, Torrance, Calif., USA) 150×4.6 mm using a NaCl gradient of 0-1 M in 30 min with a flux of 1 mL/min. Individual fractions (0.5 mL) were collected and counted using a micro-beta counter. […] The abbreviations used in the figure are: GlcNS(6S)=2-deoxy-6-O-sulfo-2-(sulfoamino)-α-D-glucopyranoside; GlcA=β-D-glucopyranuronosyl; GlcNS(3S,6S)=2-deoxy-3,6-di-O-sulfo-2-(sulfoamino)-α-D-glucopyranosyl; IdoA(2S)=2-O-sulfo-α-L-idopyranuronosyl; and, GlcNS(6S)OMe=methyl-O-2-deoxy-6-O-sulfo-2-(sulfoamino)-α-D-glucopyranoside.
As for the heparin stimulus, the HS produced by these cells have more of heparin sequences [-4) IdoA2S(1-4)GlcNS,6S] (heparin's basic structure). […] Counting from the left, the RS-induced heparans are chains of disaccharide pairs like sugar groups number 4-5 hooked together. Additionally, the major fraction of stimulated heparan sulfate produced are tri-sulfated discaccharides (Iodo2S-GlcNS,6S), typical of the major sequence in heparin.

endothelial cells = test: Heparan sulfate (HS) stimulus experiment; format: cell-based; conditions: vs control; FIG. 10
Procedure: A heparin sulfate (HS) stimulus experiment was performed as known in the art, using the four RS isoforms described herein. […] While the results shown here are limited to the RS isoforms studied, the type of polysaccharides to which this applies can be expanded to other classes of compounds that likely have similar effects, such as PUFAs, non-sulfated PS, other polymers, and the like. These RS (and other similar acting substances found in nature) can be used for in vivo HS and GAG production instead of administering HS or other GAGS for therapeutic effect.

## L-arginine (L-Arg) salt of rhamnan sulfate [RS #1]
HCAEC monolayers [1]
  decrease of water flux through HCAEC monolayers: ~50%
HCAEC monolayers [2]
  coverage of heparan sulfate on HCAEC monolayers (immunostaining): increased the coverage
[3]
  reduction of LDL permeability of control monolayers: 5 fold

## rhamnan sulfate [RS #2]
HCAEC monolayers [1]
  decrease of water flux through HCAEC monolayers: ~20%
Endothelial cells (EC)
  heparin sequences composed of the tri-sulfated disaccharide (ΔU2S-GlcNS,6S) in HS synthesized by EC: significant increase
[3]
  reduction of LDL permeability of control monolayers: 5 fold

## rhamnan sulfate [RS #3]
Endothelial cells
  cellular HS content (cellular fraction of heparans): no change

From patent US20130273096A1, “Therapeutic Sulfated Polysaccharides, Compositions Thereof, and Methods for Treating Patients” (priority 2011, published 2013)
